In patent publication US20080293781A1, “Salicylic Acid Derivatives” (priority 2005, published 2008):
Read-outs that look alike come from different tables or passages of the source.

Key:
[1] = biological target: T1, cyclooxygenase type-1 (COX1) (Mus musculus, UniProt P22437); experiment: Inhibition of COX1 activity (PGE2 release) in resting RAW 264.7 macrophages; assay type: cell-based; conditions: for Type of inhibition “Irreversibile”: 30 min exposure, substrate applied directly or after extensive washing, difference less than 5% = irreversible
T1 construct: cyclooxygenase type-1 (COX1) activity was estimated in resting RAW 264.7 macrophages; endogenous in cells; host or cells: RAW 264.7 macrophages (resting)
T1 sequence (P22437 27-602): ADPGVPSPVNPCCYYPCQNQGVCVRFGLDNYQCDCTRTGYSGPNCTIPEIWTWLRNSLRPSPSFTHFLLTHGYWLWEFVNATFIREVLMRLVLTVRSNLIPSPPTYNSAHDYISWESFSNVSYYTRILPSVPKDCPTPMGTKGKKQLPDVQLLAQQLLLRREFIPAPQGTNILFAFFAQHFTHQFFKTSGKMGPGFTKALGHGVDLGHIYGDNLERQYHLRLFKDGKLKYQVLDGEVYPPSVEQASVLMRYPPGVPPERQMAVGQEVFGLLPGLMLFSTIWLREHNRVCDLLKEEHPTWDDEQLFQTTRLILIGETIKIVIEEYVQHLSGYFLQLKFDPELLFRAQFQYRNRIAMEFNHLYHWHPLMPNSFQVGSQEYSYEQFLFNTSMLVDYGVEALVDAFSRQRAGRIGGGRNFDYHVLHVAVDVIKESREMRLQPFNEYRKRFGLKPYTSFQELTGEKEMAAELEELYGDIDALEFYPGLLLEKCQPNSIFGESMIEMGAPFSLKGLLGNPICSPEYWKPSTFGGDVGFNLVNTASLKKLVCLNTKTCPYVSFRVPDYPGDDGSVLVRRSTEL
Description: The extent and type of inhibitory effects of this class of compounds on cyclooxygenase type-1 (COX1) activity was estimated in resting RAW 264.7 macrophages.
The type of inhibition (irreversible vs. reversible) was determined in resting conditions by exposing the cells to the test compounds for 30 min followed by the application of the substrate either directly or after extensive washing and then incubated for additional 15 min. The presence of residual activity (difference less than 5% vs. that recorded without washing) was taken as index of the irreversible nature of the inhibitory effects of the compounds.

[2] = biological target: T2, cyclooxygenase type-2 (COX2) (Mus musculus, UniProt Q05769); experiment: Inhibition of COX2 activity (PGE2 formation) in LPS/IFNγ-induced RAW 264.7 macrophages; conditions: RAW264.7, read-out: COX2 inhibition %
T2 sequence (Q05769 18-604): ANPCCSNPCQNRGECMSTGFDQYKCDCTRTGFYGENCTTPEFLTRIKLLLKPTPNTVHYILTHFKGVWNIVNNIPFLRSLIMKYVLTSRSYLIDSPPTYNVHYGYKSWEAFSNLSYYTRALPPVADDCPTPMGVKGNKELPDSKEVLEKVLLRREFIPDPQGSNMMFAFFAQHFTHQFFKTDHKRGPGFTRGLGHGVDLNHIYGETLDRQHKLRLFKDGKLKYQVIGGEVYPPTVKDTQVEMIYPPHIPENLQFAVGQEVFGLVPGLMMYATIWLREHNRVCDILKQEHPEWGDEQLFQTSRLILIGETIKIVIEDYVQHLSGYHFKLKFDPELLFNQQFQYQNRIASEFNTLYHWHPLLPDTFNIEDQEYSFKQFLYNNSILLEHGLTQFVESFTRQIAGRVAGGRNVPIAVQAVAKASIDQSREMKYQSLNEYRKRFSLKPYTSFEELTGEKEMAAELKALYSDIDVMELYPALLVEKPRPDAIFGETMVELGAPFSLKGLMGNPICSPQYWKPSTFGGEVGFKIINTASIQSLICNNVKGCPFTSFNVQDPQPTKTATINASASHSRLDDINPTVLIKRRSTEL
Description: The inhibitory activity on COX2 was, instead, analyzed following the induction of this protein with 1 μg/mL of the bacterial endotoxin, lipopolysaccharide (LPS) and 10 ng/mL of interferon-γ (IFNγ) that were applied for 16 h to RAW 264.7 macrophages previously treated with 100 μM of the irreversible blocker, aspirin (ASA). Arachidonic acid served as substrate for the enzyme and the extent of PGE2 formation taken as index of COX2 activity.

[3] = Hydrolysis in human serum; assay type: in vitro ADME; conditions: 37°C, RP-HPLC, half-life of hydrolysis, read-out: Uman Serum stability (t1/2 h) (converted)
Description: A solution of each compound (10 mM) in acetonitrile was added to human serum (Sigma) preheated at 37° C., the final concentration of the compound was 250 μM. Resulting solution was incubated at 37±0.5° C. and at appropriate time intervals 500 μL of reaction mixture was withdrawn and added to 750 μL of acetonitrile containing 0.1% trifluoroacetic acid in order to deproteinize the serum. Sample was sonicated, vortexed and then centrifuged for 10′ at 2150 g, The clear supernatant was filtered by 0.45 μm PTFE filters (Alltech) and analysed by RP-HPLC.
(§1) The reverse-phase HPLC procedure allowed separation and quantitation of remaining salicylic ester and of salicylic acid.
(§2) HPLC analyses were performed with a HP 1100 chromatograph system (Agilent Technologies, Palo Alto, Calif., USA) equipped with a quaternary pump (model G1311A), a membrane degasser (G1379A), a diode-array detector (DAD) (model G1315B) integrated in the HP1100 system. Data analysis was done using a HP ChemStation system (Agilent Technologies). The analytical column was a Nucleosil 100-5C18 Nautilus (250×4.6 mm, 5 μm particle size) (Macherey-Nagel). The mobile phase consisting of acetonitrile/water (55/45) with 0.1% trifluoroacetic acid and the flow-rate was 1.2 mL/min. The injection volume was 20 μL (Rheodyne, Cotati, Calif.). The column effluent was monitored at 226 nm (for salicylic esters) and 240 nm (for salicylic acid) referenced against a 600 nm wavelength. Quantitation was done by comparison of peak areas with standards chromatographed under the same conditions.
(§3) The hydrolysis of all esters followed first-order kinetics; the observed pseudo-first-order rate constants (kobs) for the hydrolysis were calculated from the slopes of linear plots of the natural logarithm of percent remaining salicylic ester against time and the corresponding half-lives (t1/2) were obtained from: […]

[4] = Hydrolysis in acidic medium (pH 1); assay type: physicochemical; conditions: HCl 0.1M, 250 μM, 37°C
Description: A solution of each compound (10 mM) in acetonitrile was added to a HCl 0.1M preheated at 37° C., the final concentration of the compound was 250 μM. Resulting solution was maintained at 37±0.5° C. and at appropriate time intervals a 20 μL aliquote of reaction solution was analysed by RP-HPLC.
as §1, §2, §3

[5] = system: rats (carrageenan paw edema); experiment: Anti-inflammatory activity: carrageenan-induced paw edema in conscious rats; assay type: in vivo; parameters: concentration or dose not given beside the values; conditions: rat, intragastric, paw volume 3 hours after carrageenan, mean ± SEM
Description: Paw edema was induced in conscious rats by subplantar injection of carrageenan (0.1 ml of 1% carrageenan suspension in carboxymethylcellulose 1%). Immediately after carrageenan injection, compounds or vehicle (CMC, 1%) were administered intragastrically to different groups of rats in a volume of 10 ml/kg. Paw volume was measured with a plethysmometer (Basile, Comerio, Italy) immediately before carrageenan injection and 3 hours afterwards. Paw edema was determined in each rat by subtracting the initial volume displacement (pre-drug) from the subsequent post-carrageenan measurement. Edema was expressed as the percent increase in paw volume relative to the preinjection value for each animal. Statistical analysis was performed with ANOVA followed by Newman Keuls test.

[6] = system: Male Wistar rats (glandular mucosa of the stomach); experiment: Gastrolesive activity: gastric mucosal lesion index in rats; assay type: in vivo; conditions: rat, aspirin 120 mg/kg intragastric or equimolar doses, 3 hours after treatment, mean ± SEM
Description: Male Wistar rats, […] (Harlan, S. Pietro al Natisone, Italy) were individually housed in hanging stainless-steel cages with grid floors, at constant room temperature (25±1° C.) and humidity (60±5%), with an artificial 12:12 h light/dark cycle. They were deprived of food but not of water 24 h before the experiments. Groups of rats (n=8-10) were given aspirin (Acetylsalicylic acid) 120 mg/kg by intragastric route or equimolar doses of the compounds under study. Rats were sacrificed 3 hours after the administration of the compounds. Immediately after the sacrifice, the stomachs were removed, opened along the lesser curvature and examined for the assessment of mucosal lesions, the stomachs were laid on a flat surface under a stereomicroscope. The glandular mucosa was examined and each individual hemorrhagic lesion was measured along its greatest length (<1 mm: rating=1; 1-2 mm: rating=2; >2 mm: rating according to their greatest length). The lengths of the lesions were summed to give an overall total, designated as the lesion index, for each stomach. Statistical analysis was performed with ANOVA followed by Newman Keuls test.

[7] = 10 μM, resting RAW 264.7 macrophages, arachidonic acid 1 μM
[8] = 30 μM, resting RAW 264.7 macrophages, arachidonic acid 1 μM
[9] = RAW264.7, read-out: COX1 inhibition %

Row | SMILES | melting point [°C] | COX1 inhibition % [1, 7] [%] | COX1 inhibition % [1, 8] [%] | Type of inhibition “Irreversibile” [1] | inhibition at 1 µM [2] [%] | inhibition at 10 µM [2] [%] | inhibition at 30 µM [2] [%] | half-life at 250 μM [3] [h] | pH 1 stability (% after 3 h) [4] [%] | Anti inflammatory activity Paw edema (% increase) [5] [%] | Gastrotoxicity Lesion index (mm) [6] [mm] | other results
1 | O=C(Cc1ccc(OCC(CO[N+](=O)[O-])O[N+](=O)[O-])cc1)Oc1ccccc1C(=O)O (centres unmarked) | 94.5 to 95 | – | – | – | – | – | – | – | – | – | – | –
2 | O=C(CCCO[N+](=O)[O-])Oc1ccccc1C(=O)O [(2), 2-{[4-(nitrooxy)butanoyl]oxy}benzoic acid] | – | 62 | 77 | YES | 6 | 15 | 44 | – | – | – | – | inhibition at 1 µM [1, 9]: 21%
3 | O=C(CCCCO[N+](=O)[O-])Oc1ccccc1C(=O)O [(3), 2-{[5-(nitrooxy)pentanoyl]oxy}benzoic acid] | – | 66 | 77 | YES | 5 | 27 | 43 | – | – | – | – | inhibition at 1 µM [1, 9]: 11%
4 | CC(=O)Oc1ccccc1C(=O)O [Acetylsalicylic acid, reference compound] | – | 27 | 53 | YES | 2 | 5 | 20 | 1.37 | >90 | 32.95 ± 3.19 | 44.75 ± 4.66 | inhibition at 1 µM ([1]; RAW264.7, 1 μM, resting RAW 264.7 macrophages, arachidonic acid 1 μM, read-out: COX1 inhibition %): < 2%
5 | O=C(CCOc1no[n+]([O-])c1-c1ccccc1)Oc1ccccc1C(=O)O [Compound 12, 2-[(3-{[5-oxido-4-phenyl-1,2,5-oxadiazol-3-yl]oxy}propanoyl)oxy]benzoic acid] | 152 to 153.9 | – | – | – | – | – | – | – | – | – | – | –
6 | O=C(CCO[N+](=O)[O-])Oc1ccccc1C(=O)O [Compound (1), 2-{[3-(nitrooxy)propanoyl]oxy}benzoic acid] | – | – | – | – | – | – | – | 0.26 | >90 | – | – | –
7 | O=C(CCC(CO[N+](=O)[O-])O[N+](=O)[O-])Oc1ccccc1C(=O)O (centres unmarked) [Compound (6), 2-{[4,5-bis(nitrooxy)pentanoyl]oxy}benzoic acid] | – | – | – | – | – | – | – | 4.08 | >85 | 29.95 ± 7.30 | 0.50 ± 0.22 | –
8 | O=C(CCCC(CO[N+](=O)[O-])O[N+](=O)[O-])Oc1ccccc1C(=O)O (centres unmarked) [Compound (7), 2-{[5,6-bis(nitrooxy)hexanoyl]oxy}benzoic acid] | – | – | – | – | – | – | – | 4.87 | >85 | 26.19 ± 3.58 | 0.85 ± 0.64 | –
9 | O=C(CCOc1no[n+]([O-])c1S(=O)(=O)c1ccccc1)Oc1ccccc1C(=O)O [Compound (11), 2-[(3-{[5-oxido-4-(phenylsulfonyl)-1,2,5-oxadiazol-3-yl]oxy}propanoyl)oxy]benzoic acid] | 169 to 170 | – | – | – | – | – | – | 0.44 | >90 | 34.88 ± 4.69 | 0.50 ± 0.31 | –
10 | CCC(=O)Oc1ccccc1C(=O)O [Propanoylsalicylic acid, reference compound] | – | – | – | – | – | – | – | – | – | 48.13 ± 6.54 | 52.00 ± 11.78 | –
